Measurements published in patent publication EP0063525A1, “Dibenzazepine tetracyclic derivatives, process for their preparation and pharmaceutical compositions containing them” (CENTRE NATIONAL DE LA RECHERCHE SCIENTIFIQUE (CNRS), priority 1981, dated 1982).
Where two headings read alike, the source gives them in different places.

Key:
[1] = acute toxicity in the mouse, intraperitoneal; assay type: in vivo, Souris; conditions: mouse, in vivo, ip, voie intrapéritonéale; for LD50 at 48 h: souris femelles, read-out: DL 50; for mortality at 48 h: read-out: Mortalité %
Text: (§1) Les produits ont été administrés par voie intrapéritonéale à des souris femelles dont le poids variait de 18 à 30 g.
(§2) Les animaux injectés ont été maintenus dans une salle thermostatée, nourris et abreuvés à volonté.
(§3) La mortalité a été relevée à 1 heure, 4 heures, 24 heures et 48 heures.

[2] = test system: souris femelles; assay: acute toxicity in the mouse, intraperitoneal; assay type: in vivo; conditions: voie intrapéritonéale
Text: as §1, §2, §3

[3] = test system: Souris; assay: antireserpine activity: reserpine hypothermia; assay type: in vivo; conditions: réserpine 5 mg/kg i.p. 17 h before
Method: On note ensuite les températures témoins (réserpine), puis les températures 1, 2, 3 et 4 heures après l'administration des produits étudiés.
Les animaux sont répartis en lots de 4 animaux et reçoivent par voie intrapéritonéale la réserpine à une dose de 5 mg/kg. 17 heures après cette injection, on mesure la température corporelle de l'animal à l'aide d'une sonde thermocouple introduite dans le rectum; chaque lot reçoit ensuite la substance par voie intrapéritonéale. Le lot témoin reçoit la même quantité de solvant et par la même voie. La température corporelle est ensuite mesurée toutes les heures pendant 4 heures.
Les résultats sont rassemblés dans un tableau récapitulatif-où sont indiqués : • - la température moyenne pour chaque lot relevée 17 heures après l'injection de la réserpine, • - la moyenne des variations de température pour chaque lot relevées 1,2, 3 et 4 heures après l'injection de la substance étudiée, • - la somme des variations de températures pendant 4 heures, • - le pourcentage d'augmentation de la température pour chaque produit par rapport aux témoins.

[4] = test system: Souris; assay: tetrabenazine hypothermia; assay type: in vivo
Method: (§4) Ce test permet de révéler également une activité antidépressive avec l'avantage d'une lecture plus rapide qu'avec la réserpine.
Les produits sont injectés 30 minutes avant l'administration de tétrabénazine.
Les températures sont relevées aux temps : 0, 30 minutes, 60 minutes, 90 minutes et 120 minutes.
(§5) Les souris sont réparties par lots de 5.
Les températures sont relevées avant l'injection de tétrabénazine, 30 minutes, 60 minutes, 90 minutes et 120 minutes après.
(§6) Le lot témoin comprend 20 souris.

[5] = test system: Souris; assay: tetrabenazine ptosis; assay type: in vivo
Method: as §4, §5
Le ptosis est noté avant l'injection de tétrabénazine, 30 minutes, 60 minutes, 90 minutes et 120 minutes après.
On a adopté la notation suivante : • - 0 : pour un oeil ouvert, • - 1 : pour un oeil fermé au quart, • - 2 : pour un oeil fermé à moitié, • - 3 : pour un oeil fermé aux trois-quarts, • - 4 : pour un oeil fermé complètement.
as §6

[6] = 100 mg/kg, dead mice of the group
[7] = 150 mg/kg, dead mice of the group
[8] = 200 mg/kg, dead mice of the group
[9] = 250 mg/kg, dead mice of the group
[10] = product i.p. 50 mg/kg 30 min before tétrabénazine 32 mg/kg i.v.
[11] = product i.p. 50 mg/kg 30 min before tétrabénazine 32 mg/kg i.v., score 0-4 per eye
[12] = 500 mg/kg, dead mice of the group
[13] = 900 mg/kg, dead mice of the group
[14] = product i.p. 100 mg/kg 30 min before tétrabénazine 32 mg/kg i.v.
[15] = product i.p. 100 mg/kg 30 min before tétrabénazine 32 mg/kg i.v., score 0-4 per eye
[16] = 300 mg/kg, dead mice of the group
[17] = 750 mg/kg, dead mice of the group
[18] = 1500 mg/kg, dead mice of the group
[19] = product i.p. 150 mg/kg 30 min before tétrabénazine 32 mg/kg i.v.
[20] = product i.p. 150 mg/kg 30 min before tétrabénazine 32 mg/kg i.v., score 0-4 per eye

## CN(C)CCCN1c2ccccc2C2ON=C(c3ccccc3)C2c2ccccc21 (centres unmarked) [compound 3, (γ-diméthylaminopropyl)-8 phényl-3 trihydro-3a, 8,12b (dibenzo [b,f]isoxazolo [4,5-d])azépine]
[1]
  LD50 at 48 h: 200 mg/kg
[1]; 100 mg/kg
  mortality at 48 h: 0%
[1]; 150 mg/kg
  mortality at 48 h: 0%
[1]; 200 mg/kg
  mortality at 48 h: 40%
[1]; 250 mg/kg
  mortality at 48 h: 100%
[2]; [6]
  Mortalité en 1 heure: 0
  Mortalité en 48 h.: 0
[2]; [7]
  Mortalité en 1 heure: 0
  Mortalité en 48 h.: 0
[2]; [8]
  Mortalité en 1 heure: 2
  Mortalité en 48 h.: 2
[2]; [9]
  Mortalité en 1 heure: 5
  Mortalité en 48 h.: 5
[3]; ip, 4 h, product i.p. 50 mg/kg, read-out: % d'augmentation par rapport aux témoins
  change in vivo at 50 mg/kg: 125%
[3]; product i.p. 50 mg/kg
  variation de température T= 2h: +0,9
  variation de température T=3h: +0,9
  variation de température T=4h: +0,1
[4]; ip, 2 h, hypothermie, product i.p. 50 mg/kg 30 min before tétrabénazine 32 mg/kg i.v., read-out: % de protection
  inhibition in vivo at 50 mg/kg: 40%
[4]; [10]
  Température après tétrabénazine 30 minutes: -0,9
  Température après tétrabénazine 60 minutes: -1,2
  Température après tétrabénazine 90 minutes: -2,6
  Température après tétrabénazine 120 minutes: -0,4
  Température après tétrabénazine Total: -5,1
[5]; ip, 2 h, ptosis, product i.p. 50 mg/kg 30 min before tétrabénazine 32 mg/kg i.v., read-out: % de protection
  inhibition in vivo at 50 mg/kg: 32%
[5]; [10]
  Ptosis Total: 20,4
[5]; [11]
  Ptosis 30 minutes: 1,6
  Ptosis 60 minutes: 5,2
  Ptosis 90 minutes: 6,8
  Ptosis 120 minutes: 6,8

## CN(C)CCN1c2ccccc2C2C(c3ccccc3)=NN(c3ccccc3)C2c2ccccc21 (stereo not drawn) [compound 7, (β-diméthylaminoéthyl)-8 diphényl-1,3 tétrahydro-1,3a, 8, 12b (dibenzo [b,f]pyrazolo [3,4-d]) azépine]
[1]
  LD50 at 48 h: > 500 mg/kg
[1]; 250 mg/kg
  mortality at 48 h: 0%
[1]; 500 mg/kg
  mortality at 48 h: 0%
[2]; [9]
  Mortalité en 1 heure: 0
  Mortalité en 48 h.: 0
[2]; [12]
  Mortalité en 1 heure: 0
  Mortalité en 48 h.: 0
[2]; [13]
  Mortalité en 1 heure: 1
  Mortalité en 48 h.: 1
[3]; ip, 4 h, product i.p. 100 mg/kg, read-out: % d'augmentation par rapport aux témoins
  change in vivo at 100 mg/kg: 125%
[3]; product i.p. 100 mg/kg
  variation de température T= 2h: +1,1
  variation de température T=3h: +0,7
  variation de température T=4h: +0,1
[4]; ip, 2 h, hypothermie, product i.p. 100 mg/kg 30 min before tétrabénazine 32 mg/kg i.v., read-out: % de protection
  inhibition in vivo at 100 mg/kg: 26%
[4]; [14]
  Température après tétrabénazine 30 minutes: -3,2
  Température après tétrabénazine 60 minutes: -1,3
  Température après tétrabénazine 90 minutes: -1
  Température après tétrabénazine 120 minutes: -0,8
  Température après tétrabénazine Total: -6,3
[5]; ip, 2 h, ptosis, product i.p. 100 mg/kg 30 min before tétrabénazine 32 mg/kg i.v., read-out: % de protection
  inhibition in vivo at 100 mg/kg: 14%
[5]; [14]
  Ptosis Total: 25,8
[5]; [15]
  Ptosis 30 minutes: 3,8
  Ptosis 60 minutes: 7
  Ptosis 90 minutes: 7
  Ptosis 120 minutes: 8

## ( [1'-(β-hydroxyéthyl-4') pipérazinyl]-3propyl)-8 diphényl-1,3 tétrahydro-1,3a, 8,12b(dibenzo[b,f] pyrazolo [3,4-d])azépine [compound 10]
[2]; souris femelles, 2880 min
  DL 50: >750 mg/kg
[2]; 200 mg/kg, 2880 min
  Mortalité %: 0%
[2]; [8]
  Mortalité en 1 heure: 0
  Mortalité en 48 h.: 0
[2]; 300 mg/kg, 2880 min
  Mortalité %: 0%
[2]; [16]
  Mortalité en 1 heure: 0
  Mortalité en 48 h.: 0
[2]; 750 mg/kg, 2880 min
  Mortalité %: 0%
[2]; [17]
  Mortalité en 1 heure: 0
  Mortalité en 48 h.: 0
[2]; [18]
  Mortalité en 1 heure: 0
  Mortalité en 48 heures: 1
[3]; product i.p. 150 mg/kg
  % d'augmentation par rapport aux témoins: 205%
  variation de température T= 2h: +2,4
  variation de température T=3h: +1,4
  variation de température T=4h: +0,6
[4]; hypothermie, product i.p. 150 mg/kg 30 min before tétrabénazine 32 mg/kg i.v.
  % de protection: 53%
[4]; [19]
  Température après tétrabénazine 30 minutes: -1,7
  Température après tétrabénazine 60 minutes: -1,9
  Température après tétrabénazine 90 minutes: +0,6
  Température après tétrabénazine 120 minutes: -1
  Température après tétrabénazine Total: -4
[5]; [19]
  Ptosis Total: 20,8
[5]; [20]
  Ptosis 30 minutes: 1
  Ptosis 60 minutes: 6
  Ptosis 90 minutes: 5,8
  Ptosis 120 minutes: 8
[5]; product i.p. 150 mg/kg, before tétrabénazine, score 0-4 per eye
  Ptosis T = 0: 0
[5]; ptosis, product i.p. 150 mg/kg 30 min before tétrabénazine 32 mg/kg i.v.
  % de protection: 31%
